Measurements reported in article PMC8355244, “A fragment-based approach identifies an allosteric pocket that impacts malate dehydrogenase activity” (Communications Biology, 2021).
Several values for one entry are separate records, joined by “and”; a condition that tells them apart may be missing. Equal entries are not always repeated. Where two headings read alike, the source gives them in different places.

Assays:
Type in all cases: biochemical
PfMDH [1] = biological target: T1, PfMDH (Plasmodium falciparum, UniProt Q6VVP7); assay: Kinetics experiment with varying L-malate, substrate inhibition model; design: key to Ki (best-fit value, substrate inhibition model): Ki in mM; key to Vmax (best-fit value): Vmax in U/mg; 4PA kinetics raw data (rate): unit not given here; details: for Ki (best-fit value, substrate inhibition model) / Vmax (best-fit value): pH 10.2, Supplementary Table 6; for 4PA kinetics raw data (rate): replicates
T1 construct: The full-length WT PfMDH gene was cloned into pETM-13; made in house; host or cells: E. coli Rosetta 2 (DE3) pLysS
T1 sequence (Q6VVP7 entry or part of it): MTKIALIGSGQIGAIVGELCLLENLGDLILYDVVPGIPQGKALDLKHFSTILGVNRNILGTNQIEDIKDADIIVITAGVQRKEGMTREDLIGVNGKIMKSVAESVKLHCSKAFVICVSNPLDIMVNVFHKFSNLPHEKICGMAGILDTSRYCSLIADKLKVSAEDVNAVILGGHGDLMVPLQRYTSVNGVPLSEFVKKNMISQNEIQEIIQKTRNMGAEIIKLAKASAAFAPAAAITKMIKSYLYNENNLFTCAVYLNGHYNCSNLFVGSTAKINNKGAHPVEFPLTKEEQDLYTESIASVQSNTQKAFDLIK

WT PfMDH = biological target: T2, WT PfMDH (Plasmodium falciparum, UniProt Q6VVP7); assay: 4PA dose-response inhibition of PfMDH; details: for Slope / Response (Delta Abs[340 nm]/min): replicates
T2 construct: The full-length WT PfMDH gene was cloned into pETM-13; made in house; host or cells: E. coli Rosetta 2 (DE3) pLysS
T2 sequence (Q6VVP7 entry or part of it): as above
Protocol: (§1) The oxidation of malate to oxaloacetate was assayed spectrophotometrically in flat-bottomed Corning 96-well microplates in a total volume of 250.0 µl in 50 mM glycine buffer pH 10.2[24] with an additional 400 mM NaCl for protein stability. The increase of absorbance at 340 nm was recorded in kinetic mode using a Tecan Spark multimode microplate reader at 298 K. A mastermix of 50 mM NAD+ and 44 μM PfMDH was used for both the screening and kinetics experiments. The final concentration of protein and cofactor were […], respectively. Positive control groups were set (absence of compound) in the same plate as the treated group. The absorbance from the background noise was subtracted from the data and then a linear regression model was employed in order to get the line slope from the first 5 min of the reaction. The percentage of enzymatic activity has been calculated as described by Eq. (1)1 enzymeactivity(%)=slopetreated/slopepositivecontrol*100
While the fragment initially discovered was 4-(3,4-difluorophenyl) thiazol-2-amine, we decided to perform enzymatic and kinetic assays using a similar substructure 4-phenylthiazol-2-amine. 2× fold dilutions from a 200 mM stock solution of the compound in 100% DMSO was prepared for dose–response experiments. 3.3 µL of compound (DMSO in the case of positive control) were mixed with 233.9 µL mastermix of WT PfMDH previously incubated with 3 mM NAD + using a multichannel pipette. The final conditions tested were a maximum of 2.5 mM of 4PA at 1.32% (v/v) final DMSO concentration. The microplate was incubated for 15 min at 25.35 °C and the reaction started with the addition of 13.0 µL of 5 mM L-malate.

PfMDH [2] = biological target: T1, PfMDH; assay: Kinetics experiment with varying L-malate, substrate inhibition model; design: unit not given here; details: malate 5 mM, replicates
Protocol: as §1
Kinetics experiments were performed by mixing 1.3 µL of compound stock solutions from 12.5 and 25 mM of 4PA in 100% DMSO with 223.8 µL mastermix of PfMDH previously incubated in ice with 3 mM NAD+ for 30 min. […] Kinetic constants Km (mM) and Vmax (U * mg^−^1) and Ki (mM) were quantified with GraphPad Prism version 8.0 according to the substrate inhibition Eq. (2)[52].2 Y=Vmax*X/(Km+X^*(1+X/Ki))

## Nc1nc(-c2ccccc2)cs1 [4PA, 4-phenylthiazol-2-amine]
PfMDH [1]; 63 μM
  Ki (best-fit value, substrate inhibition model): 63.00 ± 31.8
  Vmax (best-fit value): 645.7 ± 29.0
PfMDH [1]; 125 μM
  Ki (best-fit value, substrate inhibition model): 72.93 ± 41.9
  Vmax (best-fit value): 630.2 ± 28.5
PfMDH [1]; PfMDH + 63 uM, malate 0.078125 mM
  4PA kinetics raw data (rate): 0.0098 and 0.01006 and 0.00834
PfMDH [1]; PfMDH + 63 uM, malate 0.15625 mM
  4PA kinetics raw data (rate): 0.01266 and 0.01336 and 0.01325
PfMDH [1]; PfMDH + 63 uM, malate 0.3125 mM
  4PA kinetics raw data (rate): 0.01621 and 0.01654 and 0.01602
PfMDH [1]; PfMDH + 63 uM, malate 0.625 mM
  4PA kinetics raw data (rate): 0.02019 and 0.02009 and 0.02113
PfMDH [1]; PfMDH + 63 uM, malate 1.25 mM
  4PA kinetics raw data (rate): 0.02141 and 0.02369 and 0.02088
PfMDH [1]; PfMDH + 63 uM, malate 2.5 mM
  4PA kinetics raw data (rate): 0.02622 and 0.02453 and 0.02721
PfMDH [1]; PfMDH + 63 uM, malate 10 mM
  4PA kinetics raw data (rate): 0.02549 and 0.02349 and 0.01973
PfMDH [1]; PfMDH + 125 uM, malate 0.078125 mM
  4PA kinetics raw data (rate): 0.00804 and 0.006868 and 0.007099
PfMDH [1]; PfMDH + 125 uM, malate 0.15625 mM
  4PA kinetics raw data (rate): 0.01089 and 0.01117 and 0.0101
PfMDH [1]; PfMDH + 125 uM, malate 0.3125 mM
  4PA kinetics raw data (rate): 0.01419 and 0.01394 and 0.01404
PfMDH [1]; PfMDH + 125 uM, malate 0.625 mM
  4PA kinetics raw data (rate): 0.01376 and 0.01789 and 0.01385
PfMDH [1]; PfMDH + 125 uM, malate 1.25 mM
  4PA kinetics raw data (rate): 0.02005 and 0.02063 and 0.0175
PfMDH [1]; PfMDH + 125 uM, malate 2.5 mM
  4PA kinetics raw data (rate): 0.02038 and 0.02019 and 0.02077
PfMDH [1]; PfMDH + 125 uM, malate 10 mM
  4PA kinetics raw data (rate): 0.01925 and 0.01826 and 0.01944
PfMDH [1]; in presence of 63 μM compound
  Ki change vs control: 5 fold
PfMDH [1]; in presence of 125 μM compound
  Ki change vs control: 6 fold
PfMDH [1]; in the presence of 63 μM compound, control 967.8 ± 99.0
  Vmax: 645.7 ± 29.0 U mg^−1
PfMDH [1]; in the presence of 125 μM compound
  Vmax: 630.2 ± 28.5 U mg^−1
PfMDH [1]; vs malate
  mechanism of the inhibition: non-competitive
WT PfMDH; 5 mM L-malate, 3 mM NAD+, pH 10.2, read-out: IC50
  IC50: 1120 ± 30 µM
WT PfMDH; Dose 1e-6 M
  Slope: 0.04587 and 0.04675 and 0.04799
WT PfMDH; Dose 0.000237161 M
  Slope: 0.03425 and 0.02991 and 0.02497
WT PfMDH; Dose 0.000332026 M
  Slope: 0.03311 and 0.03278 and 0.02964
WT PfMDH; Dose 0.000464836 M
  Slope: 0.03179 and 0.02952 and 0.02569
WT PfMDH; Dose 0.000650771 M
  Slope: 0.0287 and 0.02683 and 0.02888
WT PfMDH; Dose 0.000911079 M
  Slope: 0.02984 and 0.02623 and 0.02457
WT PfMDH; Dose 0.00127551 M
  Slope: 0.01897 and 0.02591 and 0.01942
WT PfMDH; Dose 0.00178571 M
  Slope: 0.01091 and 0.01205 and 0.0179
WT PfMDH; Dose 0.0025 M
  Slope: 0.01337 and 0.01172 and 0.009871
WT PfMDH; Dose 1.00E-06 M
  Response (Delta Abs[340 nm]/min): 4.59E-02 Delta Abs[340 nm]/min and 4.67E-02 Delta Abs[340 nm]/min and 4.80E-02 Delta Abs[340 nm]/min
WT PfMDH; Dose 1.28E-03 M
  Response (Delta Abs[340 nm]/min): 1.90E-02 Delta Abs[340 nm]/min and 2.59E-02 Delta Abs[340 nm]/min and 1.94E-02 Delta Abs[340 nm]/min
WT PfMDH; Dose 1.79E-03 M
  Response (Delta Abs[340 nm]/min): 1.09E-02 Delta Abs[340 nm]/min and 1.20E-02 Delta Abs[340 nm]/min and 1.79E-02 Delta Abs[340 nm]/min
WT PfMDH; Dose 2.37E-04 M
  Response (Delta Abs[340 nm]/min): 3.43E-02 Delta Abs[340 nm]/min and 2.99E-02 Delta Abs[340 nm]/min and 2.50E-02 Delta Abs[340 nm]/min
WT PfMDH; Dose 2.50E-03 M
  Response (Delta Abs[340 nm]/min): 1.34E-02 Delta Abs[340 nm]/min and 1.17E-02 Delta Abs[340 nm]/min and 9.87E-03 Delta Abs[340 nm]/min
WT PfMDH; Dose 3.32E-04 M
  Response (Delta Abs[340 nm]/min): 3.31E-02 Delta Abs[340 nm]/min and 3.28E-02 Delta Abs[340 nm]/min and 2.96E-02 Delta Abs[340 nm]/min
WT PfMDH; Dose 4.65E-04 M
  Response (Delta Abs[340 nm]/min): 3.18E-02 Delta Abs[340 nm]/min and 2.95E-02 Delta Abs[340 nm]/min and 2.57E-02 Delta Abs[340 nm]/min
WT PfMDH; Dose 6.51E-04 M
  Response (Delta Abs[340 nm]/min): 2.87E-02 Delta Abs[340 nm]/min and 2.68E-02 Delta Abs[340 nm]/min and 2.89E-02 Delta Abs[340 nm]/min
WT PfMDH; Dose 9.11E-04 M
  Response (Delta Abs[340 nm]/min): 2.98E-02 Delta Abs[340 nm]/min and 2.62E-02 Delta Abs[340 nm]/min and 2.46E-02 Delta Abs[340 nm]/min
WT PfMDH; log(inhibitor) vs. normalized response, variable slope
  LogIC50 (best-fit value): -2.934 and -2.922
WT PfMDH; log(inhibitor) vs. normalized response, variable slope, read-out: IC50 (best-fit value)
  IC50: 1160 µM and 1200 µM
PfMDH [2]; PfMDH + 63 uM
  4PA kinetics raw data (rate): 0.0233 and 0.02526 and 0.02238
PfMDH [2]; PfMDH + 125 uM
  4PA kinetics raw data (rate): 0.01868 and 0.01853 and 0.02184
